Measured values reported in US20140113876A1, “BIOMARKERS FOR ASSESSING TREATMENT OF SIALIC ACID DEFICIENCY DISEASES AND CONDITIONS” (ULTRAGENYX PHARMACEUTICAL INC., priority 2012, published 2014).

System: HIBM patients
Test: Phase 2 clinical trial: change in serum biomarker levels between week 0 and week 24 per dosage group (Human Discovery MAP250+ v2.0 immunoassay)
Format: in vivo
Description: Forty-seven (47) HIBM patient serum samples collected at week 24 from phase 2 study were tested using the Human Discovery MAP250+ v2.0 quantitative immunoassay system developed by Myriad RBM. The results were compared to the serum samples of the same 47 HIBM patients collected at week 0 (baseline) which were conducted earlier with the same immunoassay system.
Patients were unblinded and the results were organized into the 3 assigned dosage groups, placebo (n=14), 3 g/day (n=17) and 6 g/day (n=14). The major focus of the analysis was 1) to assess changes (delta, A) in levels of analytes between baseline and week 24 in each dosage group, 2) whether the changes correlate to dosage levels.
Analytes were excluded from analysis if […] of the HIBM patient samples were below least detectable dose (LDD). Within each dosage group, individual values with >5× difference to the mean of the dosage group were considered as outliers and thus removed from analysis.

[1] = placebo, 3 g/day, 6 g/day, week 0 to week 24, FIG. 4

CC(=O)N[C@H]1[C@H]([C@H](O)[C@H](O)CO)OC(O)(C(=O)O)C[C@@H]1O (some centres unmarked) [Sialic Acid, 5-N-acetylneuraminic acid]
serum level of LAP TGF-b1, change towards normal level compared to placebo (6 g/day dosage group, week 0 to week 24, FIG. 2): declined at a faster rate
serum level of NCAM, change towards normal level compared to placebo (6 g/day dosage group, week 0 to week 24, FIG. 3): increased at a faster rate
change in the levels of the eleven analytes of Table 14 compared to the placebo group (6 g/day group, week 24): more favorable change
slope of delta from placebo to higher dosage group, analytes with baseline levels higher than normal controls (PAI-1, LGL, myoglobin, ENA-78, TGfb1, M-CSF1, MMP-9, CgA) [1]: downward trend
slope of delta from placebo to higher dosage group, analytes with baseline levels lower than normal controls (NCAM, ErbB3) [1]: upward trend
